Key:
Experiment in all cases: radiometric filter-binding kinase assay
[1] = tested on: AKT2 (human), P31751 [S474D]
[2] = target: BRSK1 (human) (UniProt Q8TDC3)
[3] = target: CAMKK2 (human) (UniProt Q96RR4)
[4] = target: CLK2 (human) (UniProt P49760)
[5] = target: CSK (human) (UniProt P41240)
[6] = target: CSNK1D (human) (UniProt P48730)
[7] = target: DYRK3 (human) (UniProt O43781)
[8] = target: EPHA2 (human) (UniProt P29317)
[9] = target: FGFR1 (human) (UniProt P11362)
[10] = target: FLT1 (human) (UniProt P17948)
[11] = target: GSK3B (human) (UniProt P49841)
[12] = target: HIPK1 (human) (UniProt Q86Z02)
[13] = target: HIPK3 (human) (UniProt Q9H422)
[14] = target: IGF1R (human) (UniProt P08069)
[15] = target: INSR (human) (UniProt P06213)
[16] = target: IRAK4 (human) (UniProt Q9NWZ3)
[17] = target: JAK2 JH1 JH2 (human) (UniProt O60674)
[18] = tested on: LCK (mouse); settings: accession and sequence are those of the human protein
[19] = target: MAP3K1 (human) (UniProt Q13233)
[20] = target: MAP3K7 TAB1 (human) (UniProt Q15750+O43318)
[21] = target: MAPK11 (human) (UniProt Q15759)
[22] = target: MAPK14 (human) (UniProt Q16539)
[23] = target: MAPK15 (human) (UniProt Q8TD08)
[24] = target: MAPKAPK5 (human) (UniProt Q8IW41)
[25] = target: MARK1 (human) (UniProt Q9P0L2)
[26] = target: MELK (human) (UniProt Q14680)
[27] = target: MINK1 (human) (UniProt Q8N4C8)
[28] = target: NTRK1 (human) (UniProt P04629)
[29] = target: PRKCZ (human) (UniProt Q05513)
[30] = target: RIPK2 (human) (UniProt O43353)
[31] = tested on: ROCK2 (rat); settings: accession and sequence are those of the human protein
[32] = target: RPS6KA3 KD1 KD2 (human) (UniProt P51812); settings: compound 0.1 µM
[33] = target: SRC (human) (UniProt P12931)
[34] = target: STK11 CAB39 STRADA (human) (UniProt Q9Y376+Q7RTN6+Q15831)
[35] = target: TAOK1 (human) (UniProt Q7L7X3)

Sequence of MAPK15 (human) (Q8TD08 whole entry, looked up): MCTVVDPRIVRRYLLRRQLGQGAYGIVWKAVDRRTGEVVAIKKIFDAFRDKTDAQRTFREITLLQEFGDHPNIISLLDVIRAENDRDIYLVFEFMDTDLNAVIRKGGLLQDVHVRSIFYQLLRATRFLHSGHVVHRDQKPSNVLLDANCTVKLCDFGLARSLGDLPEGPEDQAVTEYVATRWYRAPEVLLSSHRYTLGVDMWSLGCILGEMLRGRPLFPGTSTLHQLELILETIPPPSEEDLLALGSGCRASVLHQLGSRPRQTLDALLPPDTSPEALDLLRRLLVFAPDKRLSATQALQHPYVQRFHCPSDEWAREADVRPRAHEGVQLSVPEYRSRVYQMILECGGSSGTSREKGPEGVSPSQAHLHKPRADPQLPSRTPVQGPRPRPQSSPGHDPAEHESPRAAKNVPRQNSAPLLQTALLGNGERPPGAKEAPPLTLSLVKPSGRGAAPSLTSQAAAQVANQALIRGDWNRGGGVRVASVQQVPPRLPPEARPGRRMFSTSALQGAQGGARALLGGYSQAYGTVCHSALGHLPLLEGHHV
Sequence of MAPK14 (human) (Q16539 whole entry, looked up): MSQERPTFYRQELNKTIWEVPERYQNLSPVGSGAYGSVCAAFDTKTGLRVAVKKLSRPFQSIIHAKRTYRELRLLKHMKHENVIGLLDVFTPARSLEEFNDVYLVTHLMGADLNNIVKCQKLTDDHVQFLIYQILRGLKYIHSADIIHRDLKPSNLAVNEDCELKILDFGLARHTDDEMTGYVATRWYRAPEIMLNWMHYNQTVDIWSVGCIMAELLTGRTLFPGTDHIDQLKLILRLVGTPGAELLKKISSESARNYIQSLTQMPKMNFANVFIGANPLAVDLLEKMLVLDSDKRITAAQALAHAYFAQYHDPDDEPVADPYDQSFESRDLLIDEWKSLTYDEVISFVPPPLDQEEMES
Sequence of NTRK1 (human) (P04629 whole entry, looked up): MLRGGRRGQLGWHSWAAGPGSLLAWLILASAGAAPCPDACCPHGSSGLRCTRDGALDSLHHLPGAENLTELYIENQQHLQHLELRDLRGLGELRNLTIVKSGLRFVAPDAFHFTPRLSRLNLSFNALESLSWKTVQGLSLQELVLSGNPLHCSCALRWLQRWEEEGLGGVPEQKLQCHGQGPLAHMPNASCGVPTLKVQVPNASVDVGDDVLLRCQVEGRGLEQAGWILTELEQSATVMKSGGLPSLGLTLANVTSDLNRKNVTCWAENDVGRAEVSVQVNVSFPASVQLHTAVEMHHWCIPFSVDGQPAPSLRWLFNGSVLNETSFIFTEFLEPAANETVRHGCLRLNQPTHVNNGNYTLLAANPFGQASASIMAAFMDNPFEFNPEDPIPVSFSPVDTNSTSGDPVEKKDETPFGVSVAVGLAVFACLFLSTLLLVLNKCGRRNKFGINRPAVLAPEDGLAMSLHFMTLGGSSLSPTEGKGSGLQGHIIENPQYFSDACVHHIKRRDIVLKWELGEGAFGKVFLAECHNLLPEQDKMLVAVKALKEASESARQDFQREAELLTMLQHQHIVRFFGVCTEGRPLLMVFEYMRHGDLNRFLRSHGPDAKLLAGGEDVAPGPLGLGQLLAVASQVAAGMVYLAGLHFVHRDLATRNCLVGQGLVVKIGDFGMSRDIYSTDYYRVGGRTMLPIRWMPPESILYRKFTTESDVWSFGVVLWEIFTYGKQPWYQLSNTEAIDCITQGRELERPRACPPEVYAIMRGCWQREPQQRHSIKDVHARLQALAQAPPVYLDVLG
Sequence of EPHA2 (human) (P29317 whole entry, looked up): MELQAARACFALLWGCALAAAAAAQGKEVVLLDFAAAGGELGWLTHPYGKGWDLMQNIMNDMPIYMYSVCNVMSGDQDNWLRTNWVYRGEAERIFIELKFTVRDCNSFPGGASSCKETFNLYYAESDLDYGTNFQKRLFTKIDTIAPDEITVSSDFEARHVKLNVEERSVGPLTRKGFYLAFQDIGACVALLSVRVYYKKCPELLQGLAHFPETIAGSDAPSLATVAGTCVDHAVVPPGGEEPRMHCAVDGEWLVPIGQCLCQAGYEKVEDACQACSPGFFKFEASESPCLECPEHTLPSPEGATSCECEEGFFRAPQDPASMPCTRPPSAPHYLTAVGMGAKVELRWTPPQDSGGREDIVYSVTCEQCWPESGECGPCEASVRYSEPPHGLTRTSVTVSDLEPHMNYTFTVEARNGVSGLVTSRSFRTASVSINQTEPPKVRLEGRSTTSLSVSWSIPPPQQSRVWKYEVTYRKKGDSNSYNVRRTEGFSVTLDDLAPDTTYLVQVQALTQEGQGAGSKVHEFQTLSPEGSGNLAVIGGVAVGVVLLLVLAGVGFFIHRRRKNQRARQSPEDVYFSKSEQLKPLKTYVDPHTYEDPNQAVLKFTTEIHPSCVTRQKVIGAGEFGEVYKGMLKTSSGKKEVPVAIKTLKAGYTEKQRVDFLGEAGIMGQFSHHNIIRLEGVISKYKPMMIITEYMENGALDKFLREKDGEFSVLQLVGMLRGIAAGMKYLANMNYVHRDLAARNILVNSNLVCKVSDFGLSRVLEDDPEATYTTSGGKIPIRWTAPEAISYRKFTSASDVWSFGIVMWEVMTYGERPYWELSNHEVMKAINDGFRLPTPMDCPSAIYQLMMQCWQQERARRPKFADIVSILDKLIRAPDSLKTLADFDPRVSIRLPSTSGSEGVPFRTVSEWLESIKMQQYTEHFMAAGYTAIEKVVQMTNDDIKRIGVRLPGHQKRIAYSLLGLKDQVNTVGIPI
Sequence of HIPK1 (human) (Q86Z02 whole entry, looked up): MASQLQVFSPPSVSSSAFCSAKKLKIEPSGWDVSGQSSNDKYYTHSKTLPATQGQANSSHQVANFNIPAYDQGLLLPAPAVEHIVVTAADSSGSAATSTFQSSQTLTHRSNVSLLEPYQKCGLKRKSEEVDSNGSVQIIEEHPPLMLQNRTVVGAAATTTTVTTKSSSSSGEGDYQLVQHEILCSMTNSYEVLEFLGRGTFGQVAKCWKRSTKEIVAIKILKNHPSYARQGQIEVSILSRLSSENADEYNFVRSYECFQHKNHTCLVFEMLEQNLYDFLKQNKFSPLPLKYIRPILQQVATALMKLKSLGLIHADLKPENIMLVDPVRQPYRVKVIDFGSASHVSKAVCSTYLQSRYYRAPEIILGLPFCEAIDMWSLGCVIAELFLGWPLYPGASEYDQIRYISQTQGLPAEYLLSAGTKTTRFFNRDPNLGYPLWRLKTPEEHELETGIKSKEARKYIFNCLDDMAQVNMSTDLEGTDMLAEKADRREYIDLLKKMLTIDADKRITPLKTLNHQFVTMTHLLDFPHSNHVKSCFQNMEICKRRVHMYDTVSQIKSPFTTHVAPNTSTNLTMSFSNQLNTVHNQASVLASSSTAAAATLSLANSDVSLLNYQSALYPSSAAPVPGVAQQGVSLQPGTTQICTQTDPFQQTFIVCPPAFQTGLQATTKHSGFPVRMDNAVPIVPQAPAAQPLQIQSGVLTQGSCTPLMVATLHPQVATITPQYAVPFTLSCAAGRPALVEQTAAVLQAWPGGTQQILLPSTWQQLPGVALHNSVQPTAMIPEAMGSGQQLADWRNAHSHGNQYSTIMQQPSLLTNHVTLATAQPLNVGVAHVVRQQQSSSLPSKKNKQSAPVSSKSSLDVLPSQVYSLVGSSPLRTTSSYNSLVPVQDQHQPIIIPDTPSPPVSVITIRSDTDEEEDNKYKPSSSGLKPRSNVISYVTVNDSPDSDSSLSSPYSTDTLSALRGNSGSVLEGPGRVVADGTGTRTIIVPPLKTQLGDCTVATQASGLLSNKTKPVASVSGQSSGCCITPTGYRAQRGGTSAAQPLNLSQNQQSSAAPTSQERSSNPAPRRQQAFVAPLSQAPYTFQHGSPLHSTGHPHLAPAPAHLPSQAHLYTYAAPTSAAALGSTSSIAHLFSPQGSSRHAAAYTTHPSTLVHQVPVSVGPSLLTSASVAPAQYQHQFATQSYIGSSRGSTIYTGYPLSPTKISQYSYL
Sequence of JAK2 JH1 JH2 (human) (O60674 whole entry, looked up): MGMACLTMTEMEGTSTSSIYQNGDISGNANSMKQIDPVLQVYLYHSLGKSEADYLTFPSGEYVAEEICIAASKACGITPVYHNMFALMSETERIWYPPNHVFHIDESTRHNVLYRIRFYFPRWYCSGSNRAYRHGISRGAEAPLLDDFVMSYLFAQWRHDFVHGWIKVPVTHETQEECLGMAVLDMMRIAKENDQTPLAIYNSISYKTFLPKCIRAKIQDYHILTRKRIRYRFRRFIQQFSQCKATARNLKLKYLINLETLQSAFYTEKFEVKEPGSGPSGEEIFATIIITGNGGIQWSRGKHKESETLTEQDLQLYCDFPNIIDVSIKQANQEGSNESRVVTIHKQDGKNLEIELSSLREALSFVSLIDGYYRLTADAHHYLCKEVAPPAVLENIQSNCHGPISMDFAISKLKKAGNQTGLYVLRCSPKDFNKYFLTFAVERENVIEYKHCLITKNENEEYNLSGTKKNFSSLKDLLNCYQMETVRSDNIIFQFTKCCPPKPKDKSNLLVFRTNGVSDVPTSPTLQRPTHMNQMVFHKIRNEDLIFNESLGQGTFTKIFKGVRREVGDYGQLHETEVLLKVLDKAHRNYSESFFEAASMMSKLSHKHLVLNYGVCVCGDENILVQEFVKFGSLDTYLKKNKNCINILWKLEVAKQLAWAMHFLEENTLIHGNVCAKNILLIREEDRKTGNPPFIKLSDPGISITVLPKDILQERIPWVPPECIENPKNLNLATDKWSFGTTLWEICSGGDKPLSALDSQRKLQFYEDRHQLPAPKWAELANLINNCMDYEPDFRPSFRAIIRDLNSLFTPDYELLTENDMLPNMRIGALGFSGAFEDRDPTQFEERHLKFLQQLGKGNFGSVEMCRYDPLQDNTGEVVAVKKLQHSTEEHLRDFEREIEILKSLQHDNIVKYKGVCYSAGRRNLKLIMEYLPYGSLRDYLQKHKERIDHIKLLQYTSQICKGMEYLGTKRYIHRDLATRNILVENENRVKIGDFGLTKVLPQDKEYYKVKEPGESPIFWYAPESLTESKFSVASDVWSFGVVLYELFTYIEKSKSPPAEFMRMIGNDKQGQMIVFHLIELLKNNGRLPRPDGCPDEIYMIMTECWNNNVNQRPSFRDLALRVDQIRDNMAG

**Q.** What does the source list for CCn1c(-c2nonc2N)nc2cncc(CNC3CCNCC3)c21?
**A.** residual activity ([1]; compound 0.1 µM): 101%; residual activity ([1]; compound 1.0 µM): 59%; residual activity ([1]; compound 10.0 µM): 38%; residual activity ([2]; compound 0.1 µM): 91%; residual activity ([2]; compound 1.0 µM): 81%; residual activity ([2]; compound 10.0 µM): 41%; residual activity ([3]; compound 1.0 µM): 128%; residual activity ([3]; compound 10.0 µM): 105%; residual activity ([4]; compound 0.1 µM): 107%; residual activity ([4]; compound 1.0 µM): 71%; residual activity ([4]; compound 10.0 µM): 22%; residual activity ([5]; compound 0.1 µM): 89%; residual activity ([5]; compound 1.0 µM): 95%; residual activity ([5]; compound 10.0 µM): 98%; residual activity ([6]; compound 0.1 µM): 102%; residual activity ([6]; compound 1.0 µM): 91%; residual activity ([6]; compound 10.0 µM): 61%; residual activity ([7]; compound 0.1 µM): 107%; residual activity ([7]; compound 1.0 µM): 93%; residual activity ([7]; compound 10.0 µM): 72%; residual activity ([8]; compound 0.1 µM): 119%; residual activity ([8]; compound 1.0 µM): 114%; residual activity ([8]; compound 10.0 µM): 103%; residual activity ([9]; compound 0.1 µM): 101%; residual activity ([9]; compound 1.0 µM): 115%; residual activity ([9]; compound 10.0 µM): 121%; residual activity ([10]; compound 0.1 µM): 103%; residual activity ([10]; compound 1.0 µM): 105%; residual activity ([10]; compound 10.0 µM): 83%; residual activity ([11]; compound 0.1 µM): 87%; residual activity ([11]; compound 1.0 µM): 66%; residual activity ([11]; compound 10.0 µM): 25%; residual activity ([12]; compound 0.1 µM): 107%; residual activity ([12]; compound 1.0 µM): 107%; residual activity ([12]; compound 10.0 µM): 84%; residual activity ([13]; compound 0.1 µM): 99%; residual activity ([13]; compound 1.0 µM): 95%; residual activity ([13]; compound 10.0 µM): 84%; residual activity ([14]; compound 0.1 µM): 96%; residual activity ([14]; compound 1.0 µM): 107%; residual activity ([14]; compound 10.0 µM): 105%; residual activity ([15]; compound 0.1 µM): 99%; residual activity ([15]; compound 1.0 µM): 99%; residual activity ([15]; compound 10.0 µM): 99%; residual activity ([16]; compound 0.1 µM): 99%; residual activity ([16]; compound 1.0 µM): 86%; residual activity ([16]; compound 10.0 µM): 87%; residual activity ([17]; compound 0.1 µM): 108%; residual activity ([17]; compound 1.0 µM): 103%; residual activity ([17]; compound 10.0 µM): 110%; residual activity ([18]; compound 0.1 µM): 102%; residual activity ([18]; compound 1.0 µM): 99%; residual activity ([18]; compound 10.0 µM): 94%; residual activity ([19]; compound 0.1 µM): 94%; residual activity ([19]; compound 1.0 µM): 93%; residual activity ([19]; compound 10.0 µM): 112%; residual activity ([20]; compound 0.1 µM): 95%; residual activity ([20]; compound 1.0 µM): 94%; residual activity ([20]; compound 10.0 µM): 82%; residual activity ([21]; compound 0.1 µM): 102%; residual activity ([21]; compound 1.0 µM): 96%; residual activity ([21]; compound 10.0 µM): 89%; residual activity ([22]; compound 0.1 µM): 101%; residual activity ([22]; compound 1.0 µM): 95%; residual activity ([22]; compound 10.0 µM): 94%; residual activity ([23]; compound 0.1 µM): 95%; residual activity ([23]; compound 1.0 µM): 62%; residual activity ([23]; compound 10.0 µM): 27%; residual activity ([24]; compound 0.1 µM): 94%; residual activity ([24]; compound 1.0 µM): 95%; residual activity ([24]; compound 10.0 µM): 96%; residual activity ([25]; compound 0.1 µM): 85%; residual activity ([25]; compound 1.0 µM): 95%; residual activity ([25]; compound 10.0 µM): 71%; residual activity ([26]; compound 0.1 µM): 71%; residual activity ([26]; compound 1.0 µM): 40%; residual activity ([26]; compound 10.0 µM): 26%; residual activity ([27]; compound 0.1 µM): 107%; residual activity ([27]; compound 1.0 µM): 96%; residual activity ([27]; compound 10.0 µM): 72%; residual activity ([28]; compound 0.1 µM): 104%; residual activity ([28]; compound 1.0 µM): 99%; residual activity ([28]; compound 10.0 µM): 97%; residual activity ([29]; compound 0.1 µM): 94%; residual activity ([29]; compound 1.0 µM): 71%; residual activity ([29]; compound 10.0 µM): 25%; residual activity ([30]; compound 0.1 µM): 86%; residual activity ([30]; compound 1.0 µM): 77%; residual activity ([30]; compound 10.0 µM): 77%; residual activity ([31]; compound 0.1 µM): 31%; residual activity ([31]; compound 1.0 µM): 23%; residual activity ([31]; compound 10.0 µM): 17%; residual activity [32]: 94%; residual activity ([33]; compound 0.1 µM): 110%; residual activity ([33]; compound 1.0 µM): 120%; residual activity ([33]; compound 10.0 µM): 102%; residual activity ([34]; compound 0.1 µM): 108%; residual activity ([34]; compound 10.0 µM): 57%; residual activity ([35]; compound 0.1 µM): 100%; residual activity ([35]; compound 1.0 µM): 108%; residual activity ([35]; compound 10.0 µM): 104%

Source: the kinase profiling compilation of Christmann-Franck et al. (2016)
